“Also recorded” adds a separate entry of the source. Where two headings read alike, the source gives them in different places.
Legend:
[1] = target: dopamine transporter (Rattus norvegicus, UniProt P23977); test: displacement of [^3 H]mazindol binding from rat striatal membranes
[2] = test system: rats trained to discriminate cocaine
[3] = test system: rats trained to discriminate cocaine; test: animal or person; details: Rattus norvegicus, ip, read-out: ED50 (50% cocaine-appropriate responding)
[4] = target: T1, dopamine transporter (high-affinity uptake of [^3 H]dopamine into striatal nerve endings) (Rattus norvegicus, UniProt P23977); test: inhibition of high-affinity uptake of [^3 H]dopamine into striatal nerve endings (synaptosomes); type: biochemical
T1 construct: striatal nerve endings (synaptosomes); from tissue; host or cells: striatal nerve endings (synaptosomes)
T1 sequence (P23977 whole entry): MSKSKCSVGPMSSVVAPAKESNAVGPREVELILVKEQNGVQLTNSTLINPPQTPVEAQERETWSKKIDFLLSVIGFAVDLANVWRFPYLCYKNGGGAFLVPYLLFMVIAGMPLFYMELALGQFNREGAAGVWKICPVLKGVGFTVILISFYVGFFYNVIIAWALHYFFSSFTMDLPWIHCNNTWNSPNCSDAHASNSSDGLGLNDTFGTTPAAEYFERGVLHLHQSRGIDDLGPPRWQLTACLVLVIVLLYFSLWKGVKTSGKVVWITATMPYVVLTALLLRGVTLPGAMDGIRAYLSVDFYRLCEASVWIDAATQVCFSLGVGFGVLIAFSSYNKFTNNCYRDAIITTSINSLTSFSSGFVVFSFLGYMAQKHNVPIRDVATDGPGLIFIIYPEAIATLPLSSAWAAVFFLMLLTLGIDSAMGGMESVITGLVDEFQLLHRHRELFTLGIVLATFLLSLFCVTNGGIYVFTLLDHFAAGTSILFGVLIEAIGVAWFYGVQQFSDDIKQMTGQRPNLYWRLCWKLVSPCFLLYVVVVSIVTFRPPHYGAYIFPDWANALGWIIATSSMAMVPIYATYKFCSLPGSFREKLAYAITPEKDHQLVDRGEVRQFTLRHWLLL

[5] = test system: rats; test: casual observation of animals treated with 2c; details: 0.8 mg/kg 2c; 24 hours following administration
[6] = 0.05 mg/kg, 30 min, mean ± S.E.M.
[7] = 0.05 mg/kg, 120 min, mean ± S.E.M.
[8] = 0.05 mg/kg, 240 min, mean ± S.E.M.
[9] = 0.1 mg/kg, 30 min, mean ± S.E.M.
[10] = 0.1 mg/kg, 120 min, mean ± S.E.M.
[11] = 0.1 mg/kg, 240 min, mean ± S.E.M.
[12] = 0.2 mg/kg, 30 min, mean ± S.E.M.
[13] = 0.2 mg/kg, 240 min, mean ± S.E.M.
[14] = 0.4 mg/kg, 30 min, mean ± S.E.M.
[15] = 0.4 mg/kg, 120 min, mean ± S.E.M.
[16] = 0.4 mg/kg, 240 min, mean ± S.E.M.
[17] = 0.8 mg/kg, 30 min, mean ± S.E.M.

Sequence of dopamine transporter (P23977 whole entry): as above

In the case of C=C[C@H]1[C@@H](c2ccc(Cl)cc2)C[C@@H]2CC[C@H]1N2C [Compound 2c, 3β-(4-Chlorophenyl)-2β-vinyltropane], the IC50 [1] is reported as 1.2 ± 0.3 nM, the “potency compared with 1d” value ([1]; relative to ester counterpart 1d) is reported as “slightly more potent than the "Win" type compound 1d; also recorded: slightly more potent than its ester counterpart 1d” and the “n/N (animals completing 20 responses / tested)” value ([2]; 0.05 mg/kg, 30 min) is reported as 7/7. For the same compound, the “% Drug responses” value [2, 6] was 19 ± 4%, the “Rate (responses/min)” value [2, 6] was 29.6 ± 9 responses/min and the “n/N (animals completing 20 responses / tested)” value ([2]; 0.05 mg/kg, 120 min) was 7/7. The “% Drug responses” value [2, 7] was 22 ± 14%, the “Rate (responses/min)” value [2, 7] was 18.4 ± 6 responses/min and the “n/N (animals completing 20 responses / tested)” value ([2]; 0.05 mg/kg, 240 min) was 7/7. For the same compound, the “% Drug responses” value [2, 8] was 14 ± 14%, the “Rate (responses/min)” value [2, 8] was 28.3 ± 5 responses/min and the “n/N (animals completing 20 responses / tested)” value ([2]; 0.1 mg/kg, 30 min) was 7/7. The “% Drug responses” value [2, 9] was 40 ± 17%, the “Rate (responses/min)” value [2, 9] was 37.1 ± 6 responses/min and the “n/N (animals completing 20 responses / tested)” value ([2]; 0.1 mg/kg, 120 min) was 7/7. The “% Drug responses” value [2, 10] was 75 ± 16%, the “Rate (responses/min)” value [2, 10] was 25.7 ± 5 responses/min and the “n/N (animals completing 20 responses / tested)” value ([2]; 0.1 mg/kg, 240 min) was 7/7. For the same compound, the “% Drug responses” value [2, 11] was 61 ± 17%, the “Rate (responses/min)” value [2, 11] was 23.5 ± 4 responses/min and the “n/N (animals completing 20 responses / tested)” value ([2]; 0.2 mg/kg, 30 min) was 7/7. The “% Drug responses” value [2, 12] was 83 ± 10%, the “Rate (responses/min)” value [2, 12] was 26.2 ± 6 responses/min and the “n/N (animals completing 20 responses / tested)” value ([2]; 0.2 mg/kg, 120 min) was 7/7. The “% Drug responses” value ([2]; 0.2 mg/kg, 120 min, mean) was 100%, the “Rate (responses/min)” value ([2]; 0.2 mg/kg, 120 min, mean ± S.E.M.) was 46.8 ± 9 responses/min and the “n/N (animals completing 20 responses / tested)” value ([2]; 0.2 mg/kg, 240 min) was 7/7. The “% Drug responses” value [2, 13] was 98 ± 1%, the “Rate (responses/min)” value [2, 13] was 47.9 ± 10 responses/min and the “n/N (animals completing 20 responses / tested)” value ([2]; 0.4 mg/kg, 30 min) was 7/7. The “% Drug responses” value [2, 14] was 99 ± 1%, the “Rate (responses/min)” value [2, 14] was 52.8 ± 9 responses/min and the “n/N (animals completing 20 responses / tested)” value ([2]; 0.4 mg/kg, 120 min, * intense stereotypic response, failed to complete session) was 3/5. For the same compound, the “% Drug responses” value [2, 15] was 72 ± 28%, the “Rate (responses/min)” value [2, 15] was 24.9 ± 18 responses/min and the “n/N (animals completing 20 responses / tested)” value ([2]; 0.4 mg/kg, 240 min, * intense stereotypic response, failed to complete session) was 4/5. The “% Drug responses” value [2, 16] was 91 ± 9%, the “Rate (responses/min)” value [2, 16] was 23.6 ± 18 responses/min and the “n/N (animals completing 20 responses / tested)” value ([2]; 0.8 mg/kg, 30 min) was 7/7. For the same compound, the “% Drug responses” value [2, 17] was 93 ± 5%, the “Rate (responses/min)” value [2, 17] was 33.5 ± 9 responses/min and the “% Drug responses” value ([2]; 0.8 mg/kg, 120 min) was 95%. For the same compound, the “Rate (responses/min)” value ([2]; 0.8 mg/kg, 120 min) was 7.7 responses/min, the “n/N (animals completing 20 responses / tested)” value ([2]; 0.8 mg/kg, 120 min, * intense stereotypic response, failed to complete session) was 1/7 and the “% Drug responses” value ([2]; 0.8 mg/kg, 240 min) was 100%. The “n/N (animals completing 20 responses / tested)” value ([2]; 0.8 mg/kg, 240 min, * intense stereotypic response, failed to complete session) was 3/7, the “Rate (responses/min)” value ([2]; 0.8 mg/kg, 240 min, mean ± S.E.M.) was 39.1 ± 1 responses/min and the complete cocaine-like responding ([2]; 0.2 and 0.4 mg/kg, 30 min injection period) was “induced complete cocaine-line responding in all animals”. For the same compound, the response rates ([2]; in words, across test doses) was “stable across the different test doses of 2c, with the exception of the highest dose (0.8 mg/kg) of 2c which reduced response rates”, the “substitution for the cocaine cue / drug-appropriate responding” value ([2]; in words, dose-dependence over the tested doses) was “dose-dependent substitution for the cocaine cue” and the duration of action ([2]; in words, injection interval 30-240 min) was “long duration of action”. For the same compound, the ED50 ([3]; 0.5 h) was 0.11 mg/kg, the ED50 ([3]; 2 h) was 0.08 mg/kg and the ED50 ([3]; 4 h) was 0.09 mg/kg. For the same compound, the IC50 [4] was 3.2 ± 0.6 nM and the hyperactivity [5] was “still hyperactive 24 hours following administration”.
